Laboratory results as given in PMC5142287, “Weight control interventions improve therapeutic efficacy of dacarbazine in melanoma by reversing obesity-induced drug resistance” (Cancer & Metabolism, 2016).

How the values were obtained:
[1] = Obesity-associated factors in B16F10-isografted HFD C57BL/6J mice (body weight, blood glucose, serum lipids, ELISA); format: in vivo; settings: end of experiment, mean ± SD
Description: C57BL/6J mice were procured from Experimental Animal Facility (EAF) at National Centre for Cell Science (NCCS), Pune, India. High fat diet (24% fat) was purchased from Provimi Animal Nutrition Pvt. Ltd., Bangalore, India, and normal diet (5% fat) was obtained from Amrut Laboratory, Pune, India. The compositions of diets are provided in supplementary data (Additional file 1: Table S1). Diet-induced obesity was developed in the mice by feeding them with high fat diet as described previously. Male C57BL/6J mice (6–8 weeks old) were divided into normal diet (ND) and high fat diet (HFD) group. ND group was fed with normal diet while HFD group was fed with high fat diet supplemented with ground nut and dried coconut for 6 months. Body weight and serum chemistry profile were measured monthly to verify obesity-associated changes. Water and food were provided ad libitum to all the mice. All animal experiments were carried out as per the requirement and guidelines of the Committee for the Purpose of Control and Supervision of Experiments on Animals (CPCSEA), Government of India, and after obtaining permission of the Institutional Animal Ethics Committee (IAEC).
(§1) Blood glucose levels and serum lipids were estimated as described previously. Insulin, leptin, and adiponectin levels in the serum were estimated by mouse-specific respective ELISA kits as described. Resistin, IL-6, and TNF-α levels in the serum were detected by indirect ELISA as described previously.
(§2) To study the impact of diet-induced obesity on the outcome of DTIC therapy in melanoma, we treated B16F10 melanoma isografted obese mice with DTIC purchased from Sigma, USA (80 mg/kg intraperitoneally for five consecutive days as described previously). In addition, to look into the impact of weight loss interventions on the outcome of DTIC therapy in obese mice, mice were administered with orlistat (an antiobesity drug known to inhibit gastrointestinal lipases) and/or shifted from high fat to normal diet followed by DTIC treatment. The detailed experimental plan is illustrated in Fig. 1a. Briefly, obese mice were administered orally with orlistat (10 mg/kg on every alternate day) purchased from Enzo Life Sciences, NY, USA, and/or shifted from high fat diet to normal diet. HFD C57BL/6J mice treated with vehicle or orlistat were termed as HFD-HFD Ctrl and HFD-HFD Orli (N = 11 per each group), respectively, whereas HFD C57BL/6J mice shifted to normal diet and treated with vehicle or orlistat were grouped as HFD-ND Ctrl and HFD-ND Orli (N = 11 per each group), respectively. After 15 days, these mice were injected subcutaneously (s.c.) with B16F10 cells (2 × 10^5) in 100 μl of PBS and monitored daily for the presence of palpable tumors and dimensions were recorded on alternate days. […] Tumor volume was calculated using the formula 0.52 × length × width^2 and was followed up throughout the study.

[2] = Obesity-associated factors in B16F10-isografted ND C57BL/6J mice; format: in vivo; settings: end of experiment
Description: as §1

[3] = tested on: B16F10 melanoma; test: B16F10 melanoma isograft in HFD (obese) C57BL/6J mice: tumor growth and survival; format: in vivo; settings: HFD mice, vs untreated counterparts
Procedure: as §2

[4] = tested on: 3T3-L1 adipocytes; parameters: method as in PMID 10840932; settings: cited from earlier work
[5] = tested on: B16F10 melanoma; test: B16F10 melanoma isograft in ND C57BL/6J mice: tumor growth and survival
Procedure: Melanoma cells were injected and orlistat treatment was continued. Following tumor formation, all groups of mice were treated with vehicle (acidified water) or DTIC, and tumor volume was followed up in these mice throughout the study as mentioned above. […] At the end of the experiment, mice were sacrificed, tumors were excised, and the samples were immediately preserved at −80 °C until further use. Five mice from each group were followed up for survival studies as mentioned above.

Question: With `CCCCCCCCCCC[C@@H](C[C@@H]1OC(=O)[C@H]1CCCCCC)OC(=O)[C@H](CC(C)C)NC=O` [orlistat] as the compound, how does the Body weight ([1]; HFD-HFD (continued on HFD), orlistat 10 mg/kg oral alternate days, DTIC 80 mg/kg i.p. 5 days) read?
Answer: Its Body weight is 26.16 ± 0.71 (p < 0.0001) g.

Question: And the Blood glucose ([1]; HFD-HFD)?
Answer: The Blood glucose was 146.3 ± 5.99 (p < 0.0001) mg/dl.

Question: And the “Serum IL-6” value ([1]; HFD-HFD)?
Answer: The value was 35.45 ± 2.88 (p < 0.0001) pg/ml.

Question: What about the “Serum LDLc” value ([1]; HFD-HFD) of the same compound?
Answer: The value was 66.69 ± 3.42 (p < 0.0001) mg/dl.

Question: And the “Serum TG” value ([1]; HFD-HFD)?
Answer: Its value is 66.03 ± 3.39 (p < 0.0001) mg/dl.

Question: And the “Serum TNF-α” value ([1]; HFD-HFD)?
Answer: Its value is 13.78 ± 1.07 (p < 0.0001) pg/ml.

Question: What about the Serum adiponectin ([1]; HFD-HFD) of the same compound?
Answer: The Serum adiponectin was 8204 ± 593 (p < 0.0001) ng/ml.

Question: What about the Serum cholesterol ([1]; HFD-HFD) of the same compound?
Answer: Its Serum cholesterol is 95.75 ± 4.91 (p < 0.0001) mg/dl.

Question: And the “Serum free fatty acids” value ([1]; HFD-HFD)?
Answer: The value was 1.74 ± 0.09 (p < 0.0001) mM/l.

Question: And the Serum insulin ([1]; HFD-HFD)?
Answer: The Serum insulin was 0.269 ± 0.01 (p < 0.0001) μg/l.

Question: What about the Serum leptin ([1]; HFD-HFD) of the same compound?
Answer: Its Serum leptin is 33.74 ± 2.47 (p < 0.0001) ng/ml.

Question: And the Serum resistin ([1]; HFD-HFD)?
Answer: Its Serum resistin is 1.66 ± 0.08 (p < 0.0001) ng/ml.

Question: What about the Body weight ([1]; HFD-ND (shifted from HFD to normal diet)) of the same compound?
Answer: The Body weight was 23.1 ± 1.02 (p < 0.0001) g.

Question: What about the Blood glucose ([1]; HFD-ND) of the same compound?
Answer: The Blood glucose was 128.83 ± 6.24 (p < 0.0001) mg/dl.

Question: And the “Serum IL-6” value ([1]; HFD-ND)?
Answer: The value was 29.25 ± 2.12 (p < 0.0001) pg/ml.

Question: And the “Serum LDLc” value ([1]; HFD-ND)?
Answer: Its value is 63.31 ± 3.13 (p < 0.0001) mg/dl.

Question: What about the “Serum TG” value ([1]; HFD-ND) of the same compound?
Answer: Its value is 60.53 ± 3.15 (p < 0.0001) mg/dl.

Question: And the “Serum TNF-α” value ([1]; HFD-ND)?
Answer: Its value is 11.48 ± 1.12 (p < 0.0001) pg/ml.

Question: What about the Serum adiponectin ([1]; HFD-ND) of the same compound?
Answer: Its Serum adiponectin is 9108 ± 550 (p < 0.0001) ng/ml.

Question: What about the Serum cholesterol ([1]; HFD-ND) of the same compound?
Answer: The Serum cholesterol was 88.64 ± 5.17 (p < 0.0001) mg/dl.

Question: And the “Serum free fatty acids” value ([1]; HFD-ND)?
Answer: Its value is 1.66 ± 0.08 (p < 0.0001) mM/l.

Question: And the Serum insulin ([1]; HFD-ND)?
Answer: Its Serum insulin is 0.2570 ± 0.01 (p < 0.0001) μg/l.

Question: And the Serum leptin ([1]; HFD-ND)?
Answer: Its Serum leptin is 26.54 ± 1.60 (p < 0.0001) ng/ml.

Question: And the Serum resistin ([1]; HFD-ND)?
Answer: Its Serum resistin is 1.19 ± 0.06 (p < 0.0001) ng/ml.

Question: And the Blood glucose ([2]; mean)?
Answer: Its Blood glucose is 161.83 mg/dL.

Question: And the “Serum IL-6” value ([2]; mean)?
Answer: The value was 19.99 pg/mL.

Question: What about the “Serum LDLc” value ([2]; mean) of the same compound?
Answer: The value was 51.26 mg/dL.

Question: And the “Serum TG” value ([2]; mean)?
Answer: The value was 54.93 mg/dL.

Question: What about the “Serum TNF-D” value ([2]; mean) of the same compound?
Answer: The value was 11.78 pg/mL.

Question: What about the Serum adiponectin ([2]; mean) of the same compound?
Answer: Its Serum adiponectin is 13803 ng/mL.

Question: What about the Serum cholesterol ([2]; mean) of the same compound?
Answer: The Serum cholesterol was 81.36 mg/dL.

Question: And the “Serum free fatty acids” value ([2]; mean)?
Answer: The value was 0.89 mM/L.

Question: What about the Serum insulin ([2]; mean) of the same compound?
Answer: The Serum insulin was 0.116 µg/L.

Question: What about the Serum leptin ([2]; mean) of the same compound?
Answer: Its Serum leptin is 15.43 ng/mL.

Question: And the Serum resistin ([2]; mean)?
Answer: Its Serum resistin is 0.98 ng/mL.

Question: What about the Body weight ([2]; mean (SD on next line)) of the same compound?
Answer: The Body weight was 21.50 g.

Question: And the Tumor growth [3]?
Answer: Its Tumor growth is “restricted tumor growth”.

Question: And the “Differentiation of 3T3-L1 adipocytes” value [4]?
Answer: Its value is “inhibited”.

Question: And the “Survival of tumor-bearing mice” value [5]?
Answer: The value was “did not influence”.

Question: What about the “Tumor progression (tumor volume and weight)” value ([5]; DTIC 80 mg/kg i.p. 5 days, orlistat 10 mg/kg oral alternate days) of the same compound?
Answer: The value was “unaltered”.
